Here are results for ten molecules from US11311553B1, “Methods of treating 4-repeat tauopathies” (priority 2020, dated 2022).

One data set deals with PSP. The following applies: literature clinical trials in PSP patients; cited from earlier work.
Data set [1] deals with subjects with probable or possible PSP. In words: Fasudil treatment of subjects with probable or possible PSP, assessed at baseline, six months and one year. It is filed as in vivo, human. The following applies: fasudil 180 mg/day (60 mg tid).
For data set [2] the following is noted: 1-hydroxy (M3) metabolite formed in vivo; cited from earlier work.

In the case of `Nc1nc2ccc(OC(F)(F)F)cc2s1` [riluzole], in the data set with PSP, the “clinical effect / benefit in PSP” value is recorded as “failed to demonstrate effects”.

As to `C=CC1O[C@H]2C[C@H]3OC[C@@]3(OC(C)=O)[C@H]3[C@H](OC(=O)c4ccccc4)[C@]4(O)C[C@H](OC(=O)[C@H](O)[C@H](CC(C)C)NC(=O)OC(C)(C)C)C(C)=C([C@H](OC(C)=O)[C@H](O1)[C@]23C)C4(C)C` (some centres unmarked) [TPI 287], in the data set with PSP, the “clinical effect / benefit in PSP” value is “failed to show any effect”. As to `CC[C@H](C)[C@H](NC(=O)[C@H](CO)NC(=O)[C@@H](NC(=O)[C@@H]1CCCN1C(=O)[C@H](C)NC(=O)[C@@H](N)CC(N)=O)C(C)C)C(=O)N1CCC[C@H]1C(=O)N[C@@H](CCC(N)=O)C(=O)O` [Davunetide], the “clinical effect / benefit in PSP” value in the data set on PSP is on record as “not shown not to be effective”. On to `O=c1sn(-c2cccc3ccccc23)c(=O)n1Cc1ccccc1` [tideglusib], for which the “clinical effect / benefit in PSP” value in the data set with PSP is reported as “failed to show benefit”. Consider `Cl.O=S(=O)(c1cccc2cnccc12)N1CCCNCC1` [fasudil, Hexahydro-1-(5-isoquinolinesulfonyl)-1H-1,4-diazepine monohydrochloride hemihydrate], for which, in data set [1], the Oculomotor parameters result was “improve” and the sleep parameters entry is reported as “improve”. Regarding `COC1=C(OC)C(=O)C(C/C=C(\C)CC/C=C(\C)CC/C=C(\C)CC/C=C(\C)CC/C=C(\C)CC/C=C(\C)CC/C=C(\C)CC/C=C(\C)CC/C=C(\C)CCC=C(C)C)=C(C)C1=O` [coenzyme Q10], the “clinical effect / benefit in PSP” value with PSP is “failed to provide benefit”. Turning to `O=S(=O)(c1cccc2c(O)nccc12)N1CCCNCC1` [M3, hydroxyfasudil], in data set [2], the half-life entry was “about 8 hours”.

Take `O=C(Oc1ccccc1C(=O)O)c1ccccc1O` [Salsalate]: the “clinical effect / benefit in PSP” value with PSP was “failed”.

B1: Gosuranemab: a humanized monoclonal antibody that targets N-terminal tau (antibody, chains of the INN, looked up, V domains shown)
VH: EVHLVESGGALVKPGGSLRLSCAASGFSFSKYGMSWVRQAPGKGLEWVATISSSGSRTYYPDSVKGRFTISRDNAKNTLYLQMNSLRAEDTAMYYCSISWDGAMDYWGQGTTVTVSS
VL: DVVMTQSPLSLPVTLGQPASISCKSSQSIVHSNGNTYLEWYLQKPGQSPQLLVYKVSNRFSGVPDRFSGSGSGTDFTLKISRVEAEDVGTYYCFQGSLVPWAFGGGTKVEIK
As for B1, the “clinical effect / benefit in PSP” value with PSP is “no effect”.

B2: ABBV-8E12: humanized anti-tau monoclonal antibody (antibody, chains of the INN, looked up, V domains shown)
VH: EVKVVESGGGLVQPGGSMKLSCVVSGFTFSNYWVNWVRQAPGKGLEWVAQIRLKSDNYATHYEESVKGRFTISRDDSKSSVYLQMNNLRAEDSGIYYCTNWEDYWGQGTTVTVSS
VL: DIVLTQSPDSLAVSLGERATISCRASQSVSTSRYSYIHWYQQKPGQPPKLLIKYASNLESGVPSRFSGSGSGTDFTLNIHPLEPEDFATYYCHHSWEIPLTFGQGTKLEIK
B2: the “clinical effect / benefit in PSP” value in the data set with PSP was “failed to demonstrate an effect”.
